From patent US10987351B2, “RORgamma modulators and uses thereof” (Genfit, priority 2017, dated 2021)
“And” between values parts separate entries of the source, which are not always exact repeats. Equal entries are not always repeated.

How the values were obtained:
[1] = target: T1, RORγt ligand-binding domain (RORγt-LBD) (Homo sapiens, UniProt P51449); assay: Time-resolved FRET (TR-FRET) RORγt coactivator assay; type: biochemical; details: GST-RORγ-LBD, biotinylated RIP140 peptide, 2 hours; read-out: IC50, coactivator-RORγt binding inhibition (TR-FRET)
T1 construct: 20 nM recombinantly expressed RORγ-LBD fused to GST
T1 sequence (P51449 269-508 limits assumed): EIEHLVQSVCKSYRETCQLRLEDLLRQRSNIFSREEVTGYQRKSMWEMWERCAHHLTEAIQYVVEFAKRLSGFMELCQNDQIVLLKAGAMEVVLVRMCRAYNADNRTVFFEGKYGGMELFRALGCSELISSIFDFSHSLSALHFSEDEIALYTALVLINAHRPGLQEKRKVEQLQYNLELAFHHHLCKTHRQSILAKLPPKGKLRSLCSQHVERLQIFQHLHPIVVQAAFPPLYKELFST
Text: Time-resolved FRET (TR-FRET) RORγt coactivator assay was used to identify RORγ modulator compounds with ligand-dependent coactivator displacement. The assay uses a d2-labeled anti-GST antibody, synthetic N-terminally biotinylated peptide which is derived from nuclear receptor coactivator protein RIP140, and a RORγt ligand-binding domain (RORγt-LBD) that is tagged with glutathione-S-transferase (GST). The influence of compounds on the RORγ-peptide interaction relies on the binding dependent energy transfer from a donor to an acceptor fluorophor attached to the binding partner of interest. […] For reduction of background from compound fluorescence, TR-FRET method makes use of generic fluorophore labels and time resolved detection.
The assays were done in a final volume of 20 μl in a 384 well plate in a CHAPS buffer (2 mM CHAPS; 1 mM DTT, 2 mM EDTA; 0.1% BSA), containing 20 nM recombinantly expressed RORγ-LBD fused to GST, 30 nM N-terminally biotinylated peptide, 1 nM streptavidin-terbium conjugate and 20 nM d2 labeled-anti-GST. Test compounds were diluted using 10 mM stock solution. The range of the final compound concentrations used in this test was from 0.3 nM to 30 μM (logarithmic scale). DMSO content of the samples was kept at 1%. The assay was equilibrated for 2 hours in the dark at room temperature in 384 well plates (Falcon). The signal was detected by an Ultra384 reader (TECAN). […] Compounds that promote coactivator displacement induce a concentration-dependent decrease in time-resolved fluorescent signal. Data were collected and analyzed using GraphPad Prism software (GraphPad Software V5.02, San Diego Calif. USA). IC50 in μM and Emax in % were reported for each compound.

human RORγt [2] = target: T2, human RORγt (Homo sapiens, UniProt P51449); assay: RORE Luciferase/RORγt transactivation assay; type: cell-based; set-up: the full-length cDNA of human RORγt; V5-His (encoded by the vector); expressed in transfected cells; host or cells: COS-7 (monkey kidney); details: COS-7 cells transfected with human IL-17 promoter luciferase reporter and RORγt plasmid, 20 h; read-out: IC50, RORγt activity inhibition (luciferase reporter)
T2 sequence (P51449 1-497 isoform P51449-2): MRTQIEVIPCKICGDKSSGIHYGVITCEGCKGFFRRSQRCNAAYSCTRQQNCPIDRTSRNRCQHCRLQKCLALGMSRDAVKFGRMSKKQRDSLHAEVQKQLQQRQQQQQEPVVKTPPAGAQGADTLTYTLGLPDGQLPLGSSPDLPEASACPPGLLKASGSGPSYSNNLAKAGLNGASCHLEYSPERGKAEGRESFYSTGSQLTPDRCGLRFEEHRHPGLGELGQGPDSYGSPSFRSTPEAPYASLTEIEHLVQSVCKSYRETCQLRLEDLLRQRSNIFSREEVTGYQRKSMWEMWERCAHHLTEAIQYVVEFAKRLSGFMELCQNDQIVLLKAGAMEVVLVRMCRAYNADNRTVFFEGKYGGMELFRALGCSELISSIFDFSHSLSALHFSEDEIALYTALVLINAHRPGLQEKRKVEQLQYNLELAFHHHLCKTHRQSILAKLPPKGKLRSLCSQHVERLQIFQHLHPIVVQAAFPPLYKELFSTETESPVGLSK
Experimental: It is well known that RORγ binds to a conserved non-coding sequence (CNS) enhancer element in the IL-17 promoter.
Culture medium was changed every 2 days.
The 4.3 Kb human IL-17 promoter containing the RORγ-specific CNS enhancer element was PCR amplified from human genomic DNA and cloned into a pGL3-TKLuc2Cp reporter plasmid.
The luciferase reporter plasmid and the RORγt overexpression plasmid were transfected into COS-7 cell line using 4 μLJetPEI™/μg of DNA. Briefly, 150 ng of DNA (ration 1/2 between RORE-Tk Luc2Cp and cDNA RORγt or the empty vector for the negative control) was served to transfect adherent COS-7 cells in a […] culture flask, in complete medium (see cos-7 cell line culture).
Cells were then detached (using trypsin) and washed by centrifugation at 300 g for 10 minutes. Cell pellet was resuspended in serum free/phenol red free DMEM and seeded in 384 well plates at a density of 10000 cells/well and then incubated for 4 h at 37° C.
Compounds were dissolved in 100% DMSO to obtain 10 mM stock solutions. For each compound, test concentrations were diluted in serum free/phenol red free DMEM using the Genesis Freedom 200™ (TECAN) and added to the cells to obtain a 0.3% DMSO final concentration (in a final volume of 40 μL per well).
The luciferase activity was then measured with 40 μL/well steady-Glo Luciferase assay system (Promega, Madison, Wis.) and after incubation at room temperature for 30 minutes. The luminescence was estimated using the Ultra384 reader (TECAN). Data were collected and analyzed using GraphPad Prism software (GraphPad Software V5.02, San Diego Calif. USA). IC50 in μM and Emax in % were reported for each compound.

human RORγt [3] = target: T2, human RORγt; assay: IL-17 secretion from EL4 murine lymphoma cells overexpressing human RORγt; type: cell-based; details: human RORγt-transfected EL4 cells, PMA and ionomycin stimulation; read-out: IC50, inhibition of IL-17 secretion
Experimental: Murine EL-4 lymphoma cell line overexpressing human RORγt was used in this functional assay to assess compound ability to inhibit IL-17 cytokine secretion.
EL-4 cells are maintained in a standard culture medium RPMI supplemented with 10% fetal calf serum, 1% sodium pyruvate, 1% essential amino acids and 1% antibiotics at 37° C. in a humidified atmosphere of 5% CO02 and 95% air. Culture medium was changed every 2 days. EL4 cells were transfected with a plasmid encoding hRORγt (sequence identical to published sequence NM 001001523). […] Briefly, 1 μg of DNA/1 million cells was served to transfect EL-4 cells. Cell/DNA suspension was transferred into certified cuvette and the electroporation of RORγt plasmid was carried out using appropriate Nucleofector® program.
Cells were seeded in 96 well plates at a density of 150000 cells/I well then treated with compounds of this invention at indicated concentrations and incubated for 24 hours at 37° C. in a humidified atmosphere of 5% CO2 and 95% air. EL-4 cells were pretreated with test compounds (RORγ modulators) and stimulated with PMA (10 ng/mL) and ionomycin (1 μM final concentration) in the presence of test compound concentrations for additional 24 h at 37° C. in a humidified atmosphere of 5% CO2 and 95% air. Subsequently, supernatants were collected (after centrifugation at 300 g for 10 minutes) to determine the concentrations of IL-17 by HTRF (CisBio, France) or ELISA (R&D Systems Europe) according to the manufacturer's protocols.

Compound | IC50 [1] | IC50 (human RORγt [2]) [nM] | IC50 (human RORγt [3]) [nM]
Cc1ccc(C(NC(=O)Cc2cc(N3CCN(C(=O)OC(C)(C)C)CC3)ccc2C)c2ccccc2)c(N2CCCCC2)c1 (centres unmarked) [Cpd.5, tert-butyl 4-{4-methyl-3-[({[4-methyl-2-(piperidin-1-yl)phenyl](phenyl)methyl}carbamoyl)methyl]phenyl}piperazine-1-carboxylate] | 1000 to 10000 nM | > 10000 | –
Cc1ccc(C(NC(=O)Cc2cc(N3CCNCC3)ccc2C)c2ccccc2)c(N2CCCCC2)c1 (centres unmarked) [Cpd.6, N-{[4-methyl-2-(piperidin-1-yl)phenyl](phenyl)methyl}-2-[2-methyl-5-(piperazin-1-yl)phenyl]acetamide] | 1000 to 10000 nM | 1000 to 10000 | –
Cc1ccc(C(NC(=O)Cc2cc(N3CCNCC3)ccc2F)c2ccccc2)c(N2CCCCC2)c1 (centres unmarked) [Cpd.7, 2-[2-fluoro-5-(piperazin-1-yl)phenyl]-N-{[4-methyl-2-(piperidin-1-yl)phenyl](phenyl)methyl}acetamide] | 1000 to 10000 nM | > 10000 | –
COc1ccc(C(NC(=O)Cc2cc(N3CCN(C(C)=O)CC3)ccc2C)c2ccccc2)c(N2CCCCCC2)c1 (centres unmarked) [Cpd.15, 2-[5-(4-acetylpiperazin-1-yl)-2-methylphenyl]-N-{[2-(azepan-1-yl)-4-methoxyphenyl](phenyl)methyl}acetamide] | 100 to 1000 nM and < 100 nM | 100 to 1000 | –
CC(=O)N1CCN(c2ccc(CC(=O)NC(CC(C)C)c3ccccc3N3CCCCC3)cc2)CC1 (centres unmarked) [Cpd.2, 2-[4-(4-acetylpiperazin-1-yl)phenyl]-N-{3-methyl-1-[2-(piperidin-1-yl)phenyl]butyl}acetamide] | 100 to 1000 nM | 100 to 1000 | –
Cc1ccc(C(NC(=O)Cc2cc(N3CCNCC3)ccc2C)c2ccc(C)o2)c(N2CCCCC2)c1 (centres unmarked) [Cpd.9, N-{[4-methyl-2-(piperidin-1-yl)phenyl](5-methylfuran-2-yl)methyl}-2-[2-methyl-5-(piperazin-1-yl)phenyl]acetamide] | 100 to 1000 nM | 1000 to 10000 | –

Second part, the molecule after the results:

IC50 [1] | IC50 (human RORγt [2]) [nM] | IC50 (human RORγt [3]) [nM] | Compound
< 100 nM | < 100 | – | Cc1ccc(C(NC(=O)Cc2cccc(N3CCC(S(C)(=O)=O)CC3)c2)c2ccc(C)o2)c(N2CCCCC2)c1 (centres unmarked) [Cpd.22, 2-[3-(4-methanesulfonylpiperidin-1-yl)phenyl]-N-{[4-methyl-2-(piperidin-1-yl)phenyl](5-methylfuran-2-yl)methyl}acetamide]
< 100 nM | < 100 | 100 to 1000 | CC(=O)N1CCN(c2ccc(C)c(CC(=O)NC(c3ccccc3)c3ccc(C)cc3N3CCCC3)c2)CC1 (centres unmarked) [Cpd.3, 2-[5-(4-acetylpiperazin-1-yl)-2-methylphenyl]-N-{[4-methyl-2-(pyrrolidin-1-yl)phenyl](phenyl)methyl}acetamide]
< 100 nM | 100 to 1000 | – | Cc1ccc(C(NC(=O)Cc2cccc(N3CCN(C)CC3)c2)c2ccc(C)o2)c(N2CCCCC2)c1 (centres unmarked) [Cpd.23, N-{[4-methyl-2-(piperidin-1-yl)phenyl](5-methylfuran-2-yl)methyl}-2-[3-(4-methylpiperazin-1-yl)phenyl]acetamide]
– | 100 to 1000 | – | Cc1ccc(C(NC(=O)Cc2cc(N3CCN(C(=O)OC(C)(C)C)CC3)ccc2F)c2ccccc2)c(N2CCCCC2)c1 (centres unmarked) [Cpd.4, tert-butyl 4-{4-fluoro-3-[({[4-methyl-2-(piperidin-1-yl)phenyl](phenyl)methyl}carbamoyl)methyl]phenyl}piperazine-1-carboxylate]
– | 100 to 1000 | – | Cc1ccc(C(NC(=O)Cc2cccc(N3CCN(S(N)(=O)=O)CC3)c2)c2ccc(C)o2)c(N2CCCCC2)c1 (centres unmarked) [Cpd.24, N-{[4-methyl-2-(piperidin-1-yl)phenyl](5-methylfuran-2-yl)methyl}-2-[3-(4-sulfamoylpiperazin-1-yl)phenyl]acetamide]
1000 to 10000 nM | 100 to 1000 | – | Cc1ccc(C(NC(=O)Cc2cc(N3CCN(C(=O)OC(C)(C)C)CC3)ccc2C)c2ccc(C)o2)c(N2CCCCC2)c1 (centres unmarked) [Cpd.8, tert-butyl 4-{4-methyl-3-[({[4-methyl-2-(piperidin-1-yl)phenyl](5-methylfuran-2-yl)methyl}carbamoyl)methyl]phenyl}piperazine-1-carboxylate]
< 100 nM | 100 to 1000 | – | CC(=O)N1CCN(c2ccc(F)c(CC(=O)NC(c3ccccc3)c3ccc(C)cc3N3CCCCC3)c2)CC1 (centres unmarked) [Cpd.13, 2-[5-(4-acetylpiperazin-1-yl)-2-fluorophenyl]-N-{[4-methyl-2-(piperidin-1-yl)phenyl](phenyl)methyl}acetamide]
< 100 nM | < 100 | – | Cc1ccc(C(NC(=O)Cc2cc(N3CCC(S(C)(=O)=O)CC3)ccc2F)c2ccc(C)o2)c(N2CCCCC2)c1 (centres unmarked) [Cpd.21, 2-[2-fluoro-5-(4-methanesulfonylpiperidin-1-yl)phenyl]-N-{[4-methyl-2-(piperidin-1-yl)phenyl](5-methylfuran-2-yl)methyl}acetamide]
100 to 1000 nM | < 100 | – | Cc1ccc(C(NC(=O)Cc2cccc(N3CCN(C(=O)C(F)(F)F)CC3)c2)c2ccc(C)o2)c(N2CCCCC2)c1 (centres unmarked) [Cpd.25, N-{[4-methyl-2-(piperidin-1-yl)phenyl](5-methylfuran-2-yl)methyl}-2-{3-[4-(trifluoroacetyl)piperazin-1-yl]phenyl}acetamide]
